In patent publication US20160067295A1, “WALNUT EXTRACTS FOR NUTRACEUTICAL APPLICATIONS” (priority 2009, published 2016):

Experiments:
[1] = molecular target: T1, Amyloid [A]β1-40 aggregates (Homo sapiens, UniProt P05067); assay: Defibrillization assay: dissolution of already formed amyloid Aβ-aggregates (Thioflavin T fluorescence); type: biochemical; settings: 12 mg PC/ml test assay for walnut extracts, 12 mg PC Soy or PS Soy/ml; FIG. 3
T1 construct: Amyloid [A] β1-40 (Sigma-Aldrich, A 1075); purchased Sigma-Aldrich A 1075
Procedure: In this example, the highest concentrations of the walnut extracts (12 mg PC/ml test assay for the walnut extracts, 12 mg PC Soy or PS Soy/ml) were evaluated for their ability to reverse an already formed aggregate of amyloid-β.
Defibrillization efficacy is indicative for treatment of Alzheimer disease.
Dissolution of amyloid Aβ-aggregates by ES2008-021 and ES2008-022-Defibrillization assay
In a further extension of the test system, the above samples were evaluated for their ability to reverse an already formed aggregate of amyloid-β. Defibrillization efficacy is indicative for curing of Alzheimer disease.
Dissolution of amyloid Aβ-aggregates was induced by incubation with walnut extract. At each concentration of walnut extract (0.625, 1.25, 2.5, 5.0 or 7.5 μl ES2008-022 or 0.625, 1.25, 2.5, 5.0 or 7.5 μl from a stock solution containing 125 mg ES2008-021/ml) three samples were incubated and evaluated. […]
After 3 days each sample is mixed with 2 μM ([…]) Thioflavin T and 950 μl glycine/NaOH buffer (50 mM glycine, pH=9.0). Fluorescence was measured at ex 435 nm/em 485 nm.
Subtract fluorescence intensity for the corresponding “reagent blank samples” from each “active sample”. Compare the resulting fluorescence intensity with the fluorescence intensity measured for the control sample. […]

[2] = molecular target: human blood (acetyl) cholinesterase (Homo sapiens, UniProt P22303); settings: for inhibition of acetyl cholinesterase (in words): 1 mg Phosphatidylcholine per ml test solution, FIG. 4, FIG. 5; for % activity of AchE: remaining activity within 5 minutes of incubation; for % activity of AchE / % inhibited part of activity of AchE: 1 mg/ml test solution; for % inhibited part of activity of AchE: within 5 minutes of incubation
human blood (acetyl) cholinesterase, sequence (P22303 32-617 isoform P22303-2 limits assumed): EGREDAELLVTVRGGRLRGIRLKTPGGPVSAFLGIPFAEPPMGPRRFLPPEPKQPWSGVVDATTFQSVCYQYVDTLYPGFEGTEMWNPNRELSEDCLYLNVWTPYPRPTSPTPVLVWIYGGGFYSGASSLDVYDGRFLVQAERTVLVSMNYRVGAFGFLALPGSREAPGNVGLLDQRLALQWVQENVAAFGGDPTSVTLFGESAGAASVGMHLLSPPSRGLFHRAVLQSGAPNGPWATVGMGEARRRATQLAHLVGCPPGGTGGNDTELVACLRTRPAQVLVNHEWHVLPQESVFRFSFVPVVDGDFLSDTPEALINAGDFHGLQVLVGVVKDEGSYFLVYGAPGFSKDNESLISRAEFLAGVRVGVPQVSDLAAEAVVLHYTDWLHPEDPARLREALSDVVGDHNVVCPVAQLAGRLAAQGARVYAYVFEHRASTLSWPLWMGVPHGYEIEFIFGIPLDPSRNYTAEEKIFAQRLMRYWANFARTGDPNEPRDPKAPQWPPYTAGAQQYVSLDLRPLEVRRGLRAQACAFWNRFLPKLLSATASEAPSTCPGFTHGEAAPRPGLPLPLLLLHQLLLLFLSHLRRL

T1 sequence (P05067 672-711 limits assumed): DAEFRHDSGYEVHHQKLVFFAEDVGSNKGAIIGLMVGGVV

| Substance | defibrillization efficacy (in words) [1] | inhibition of acetyl cholinesterase (in words) [2] | % activity of AchE [2] | % inhibited part of activity of AchE [2] |
| --- | --- | --- | --- | --- |
| phosphatidylserine [PS Soy Bean] | less potent in defibrillization | almost inactive | 94.0% | 6.0% |
| phosphatidylcholine [PC Soy Bean] | less potent in defibrillization | almost inactive | 88.2% | 11.8% |
